Source: US20240109918A1, “HETEROCYCLIC COMPOUNDS AND USES THEREOF” (Kumquat Biosciences Inc., priority 2022, published 2024)

Key:
KRASG12D = biological target: T1, KRASG12D (Homo sapiens, UniProt P01116, G12D); test: Bio-Biochem-PPI-HTRF Ras-SOS1 interaction assay (KRAS G12D); assay type: biochemical; settings: 5 nM
T1 construct: made in house; host or cells: E. coli BL21 (DE3)
Procedure, shortened: (§1)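 HTRF measurement of GST-K-Ras (wt or G12D) binding to His-hSOS1, via anti-GST-Eu(K) donor and anti-6His-XL665 acceptor, in HEPES pH 7.4 buffer with NaCl, DTT, BSA and Igepal. Read after ≥10 min; compounds in duplicate from 10 μM down to 0.01 μM. IC50 from 665/620 nm ratio.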

KRASwt = biological target: T2, KRASwt (Homo sapiens, UniProt P01116); test: Bio-Biochem-PPI-HTRF Ras-SOS1 interaction assay (KRAS wt); assay type: biochemical; settings: 5 nM
T2 construct: made in house; host or cells: E. coli BL21 (DE3)
Procedure, shortened: as §1

T1 sequence (P01116 1-188 isoform P01116-2 G12D): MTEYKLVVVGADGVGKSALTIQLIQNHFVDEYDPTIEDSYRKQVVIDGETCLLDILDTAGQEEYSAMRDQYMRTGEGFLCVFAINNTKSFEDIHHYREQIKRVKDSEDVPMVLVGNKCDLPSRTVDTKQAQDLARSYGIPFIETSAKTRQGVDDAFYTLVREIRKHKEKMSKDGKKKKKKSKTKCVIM
T2 sequence (P01116 1-188 isoform P01116-2): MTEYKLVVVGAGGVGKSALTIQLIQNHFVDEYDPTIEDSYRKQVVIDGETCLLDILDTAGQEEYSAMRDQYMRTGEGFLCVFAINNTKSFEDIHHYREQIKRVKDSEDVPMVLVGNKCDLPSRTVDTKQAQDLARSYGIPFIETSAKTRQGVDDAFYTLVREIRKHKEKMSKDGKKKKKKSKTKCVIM

SMILES | IC50 (KRASG12D) [µM] | IC50 (KRASwt) [µM]
N#Cc1c(N)sc2c(F)ccc(-c3c(F)c4nc(OC[C@@]56CCCN5C[C@H](F)C6)nc(N5CCCCC6(CNC6)C5)c4c(=O)n3C3CC3)c12 [compound 198, 2-amino-4-(6-cyclopropyl-8-fluoro-2-(((2R,7aS)-2-fluorotetrahydro-1H-pyrrolizin-7a(5H)-yl)methoxy)-5-oxo-4-(2,6-diazaspiro[3.6]decan-6-yl)-5,6-dihydropyrido[4,3-d]pyrimidin-7-yl)-7-fluorobenzo[b]thiophene-3-carbonitrile] | < 5 | < 5
Nc1nc2c(-c3c(Cl)cc4c(N5CCCC6(CNCCO6)C5)nc(OC[C@@]56CCCN5C[C@H](F)C6)nc4c3F)ccc(F)c2s1 (stereo partly drawn) [compound 159, 4-(6-chloro-8-fluoro-2-(((2R,7aS)-2-fluorotetrahydro-1H-pyrrolizin-7a(5H)-yl)methoxy)-4-(1-oxa-4,8-diazaspiro[5.5]undecan-8-yl)quinazolin-7-yl)-7-fluorobenzo[d]thiazol-2-amine] | < 5 | < 5
N#Cc1c(N)sc2c(F)ccc(-c3c(Cl)cc4c(N5CCOCC6(CN(C(=O)C(F)Cl)C6)C5)nc(OC[C@@]56CCCN5C[C@H](F)C6)nc4c3F)c12 (stereo partly drawn) [compound 283, 2-amino-4-(6-chloro-4-(2-(2-chloro-2-fluoroacetyl)-6-oxa-2,9-diazaspiro[3.6]decan-9-yl)-8-fluoro-2-(((2R,7aS)-2-fluorotetrahydro-1H-pyrrolizin-7a(5H)-yl)methoxy)quinazolin-7-yl)-7-fluorobenzo[b]thiophene-3-carbonitrile] | < 5 | < 5
N#Cc1c(N)sc2c(F)ccc(-c3c(Cl)cc4c(N5CCOC6(CNC6)C5)nc(OC[C@@]56CCCN5C[C@H](F)C6)nc4c3F)c12 [compound 175, 2-amino-4-(6-chloro-8-fluoro-2-(((2R,7aS)-2-fluorotetrahydro-1H-pyrrolizin-7a(5H)-yl)methoxy)-4-(5-oxa-2,8-diazaspiro[3.5]nonan-8-yl)quinazolin-7-yl)-7-fluorobenzo[b]thiophene-3-carbonitrile] | < 5 | < 5
Cc1c(N)sc2c(F)ccc(-c3c(Cl)cc4c(N5CCOC6(CN(C(=O)/C(C#N)=C/c7ccoc7)C6)C5)nc(OC[C@@]56CCCN5C[C@H](F)C6)nc4c3F)c12 [compound 348, (E)-2-(8-(7-(2-amino-7-fluoro-3-methylbenzo[b]thiophen-4-yl)-6-chloro-8-fluoro-2-(((2R,7aS)-2-fluorotetrahydro-1H-pyrrolizin-7a(5H)-yl)methoxy)quinazolin-4-yl)-5-oxa-2,8-diazaspiro [3.5]nonane-2-carbonyl)-3-(furan-3-yl) acrylonitrile] | < 5 | < 5
N#Cc1c(N)sc2c(F)ccc(-c3c(Cl)cc4c(N5CCC(O)CC6(CN(C(=O)C(F)F)C6)C5)nc(OC[C@@]56CCCN5C[C@H](F)C6)nc4c3F)c12 (stereo partly drawn) [compound 241, 2-amino-4-(6-chloro-4-(2-(2,2-difluoroacetyl)-9-hydroxy-2,6-diazaspiro [3.6]decan-6-yl)-8-fluoro-2-(((2R,7aS)-2-fluorotetrahydro-1H-pyrrolizin-7a(5H)-yl)methoxy)quinazolin-7-yl)-7-fluorobenzo[b]thiophene-3-carbonitrile] | < 5 | < 5
N#Cc1c(N)sc2c(F)ccc(-c3c(Cl)cc4c(N5CCN(CC6CC6)C6(CN(C(=O)C(F)F)C6)C5)nc(OC[C@@]56CCCN5C[C@H](F)C6)nc4c3F)c12 [compound 346, 2-amino-4-(6-chloro-4-(5-(cyclopropylmethyl)-2-(2,2-difluoroacetyl)-2,5,8-triazaspiro[3.5]nonan-8-yl)-8-fluoro-2-(((2R,7aS)-2-fluorotetrahydro-1H-pyrrolizin-7a(5H)-yl)methoxy)quinazolin-7-yl)-7-fluorobenzo[b]thiophene-3-carbonitrile] | < 5 | < 5

Now from value to molecule:

IC50 (KRASG12D) [µM] | IC50 (KRASwt) [µM] | SMILES
< 5 | < 5 | N#Cc1c(N)sc2c(F)ccc(-c3c(Cl)cc4c(N5CCCCC6(CN(C(=O)C7(O)COC7)C6)C5)nc(OC[C@@]56CCCN5C[C@H](F)C6)nc4c3F)c12 [compound 327, 2-amino-4-(6-chloro-8-fluoro-2-(((2R,7aS)-2-fluorotetrahydro-1H-pyrrolizin-7a(5H)-yl)methoxy)-4-(2-(3-hydroxyoxetane-3-carbonyl)-2,6-diazaspiro[3.6]decan-6-yl)quinazolin-7-yl)-7-fluorobenzo[b]thiophene-3-carbonitrile]
< 5 | < 5 | CC1(NC(=O)N2CC3(CCCCN(c4nc(OC[C@@]56CCCN5C[C@H](F)C6)nc5c(F)c(-c6ccc(F)c7sc(N)c(C#N)c67)c(Cl)cc45)C3)C2)COC1 [compound 328, 6-(7-(2-amino-3-cyano-7-fluorobenzo[b]thiophen-4-yl)-6-chloro-8-fluoro-2-(((2R,7aS)-2-fluorotetrahydro-1H-pyrrolizin-7a(5H)-yl)methoxy)quinazolin-4-yl)-N-(3-methyloxetan-3-yl)-2,6-diazaspiro[3.6]decane-2-carboxamide]
< 5 | < 5 | N#Cc1c(N)sc2c(F)ccc(-c3c(Cl)cc4c(N5CCCCC6(CN(C(=O)C7CC7C7CC7)C6)C5)nc(OC[C@@]56CCCN5C[C@H](F)C6)nc4c3F)c12 (stereo partly drawn) [compound 261, 4-(4-(2-([1,1′-bi (cyclopropane)]-2-carbonyl)-2,6-diazaspiro[3.6]decan-6-yl)-6-chloro-8-fluoro-2-(((2R,7aS)-2-fluorotetrahydro-1H-pyrrolizin-7a(5H)-yl)methoxy)quinazolin-7-yl)-2-amino-7-fluorobenzo[b] thiophene-3-carbonitrile]
< 5 | < 5 | N#Cc1c(N)sc2c(F)ccc(-c3c(Cl)cc4c(N5CCCCC6(CN(C(=O)CC7CC(F)(F)C7)C6)C5)nc(OC[C@@]56CCCN5C[C@H](F)C6)nc4c3F)c12 [compound 347, 2-amino-4-(6-chloro-4-(2-(2-(3,3-difluorocyclobutyl)acetyl)-2,6-diazaspiro[3.6]decan-6-yl)-8-fluoro-2-(((2R,7aS)-2-fluorotetrahydro-1H-pyrrolizin-7a(5H)-yl)methoxy)quinazolin-7-yl)-7-fluorobenzo[b]thiophene-3-carbonitrile]
< 5 | < 5 | N#Cc1c(N)sc2c(F)ccc(-c3c(Cl)cc4c(N5CCCCC6(CN(C(=O)/C=C/C(F)(F)F)C6)C5)nc(OC[C@@]56CCCN5C[C@H](F)C6)nc4c3F)c12 [compound 207, 2-amino-4-(6-chloro-8-fluoro-2-(((2R,7aS)-2-fluorotetrahydro-1H-pyrrolizin-7a(5H)-yl)methoxy)-4-(2-((E)-4,4,4-trifluorobut-2-enoyl)-2,6-diazaspiro [3.6]decan-6-yl)quinazolin-7-yl)-7-fluorobenzo[b]thiophene-3-carbonitrile]
< 5 | < 5 | N#Cc1c(N)sc2c(F)ccc(-c3c(Cl)cc4c(N5CCCCC6(CN(CC7CC7(F)F)C6)C5)nc(OC[C@@]56CCCN5C[C@H](F)C6)nc4c3F)c12 (stereo partly drawn) [compound 255, 2-amino-4-(6-chloro-4-(2-((2,2-difluorocyclopropyl)methyl)-2,6-diazaspiro[3.6]decan-6-yl)-8-fluoro-2-(((2R,7aS)-2-fluorotetrahydro-1H-pyrrolizin-7a(5H)-yl)methoxy)quinazolin-7-yl)-7-fluorobenzo[b]thiophene-3-carbonitrile]
< 5 | < 5 | N#Cc1c(N)sc2c(F)ccc(-c3c(Cl)cc4c(N5CCCCC6(CN(C(=O)N7CCC7)C6)C5)nc(OC[C@@]56CCCN5C[C@H](F)C6)nc4c3F)c12 [compound 272, 2-amino-4-(4-(2-(azetidine-1-carbonyl)-2,6-diazaspiro[3.6]decan-6-yl)-6-chloro-8-fluoro-2-(((2R,7aS)-2-fluorotetrahydro-1H-pyrrolizin-7a(5H)-yl)methoxy)quinazolin-7-yl)-7-fluorobenzo[b]thiophene-3-carbonitrile]
< 5 | < 5 | N#Cc1c(N)sc2c(F)ccc(-c3c(Cl)cc4c(N5CCC6(CN(C(=O)C7CC7(F)F)C6)C5)nc(OC[C@@]56CCCN5C[C@H](F)C6)nc4c3F)c12 (stereo partly drawn) [compound 143, 2-amino-4-(6-chloro-4-(2-(2,2-difluorocyclopropane-1-carbonyl)-2,6-diazaspiro[3.4]octan-6-yl)-8-fluoro-2-(((2R,7aS)-2-fluorotetrahydro-1H-pyrrolizin-7a(5H)-yl)methoxy)quinazolin-7-yl)-7-fluorobenzo[b]thiophene-3-carbonitrile]
< 5 | < 5 | N#Cc1c(N)sc2c(F)ccc(-c3c(Cl)cc4c(N5CCCCC6(CN(C(=O)CC7COC7)C6)C5)nc(OC[C@@]56CCCN5C[C@H](F)C6)nc4c3F)c12 [compound 273, 2-amino-4-(6-chloro-8-fluoro-2-(((2R,7aS)-2-fluorotetrahydro-1H-pyrrolizin-7a(5H)-yl)methoxy)-4-(2-(2-(oxetan-3-yl)acetyl)-2,6-diazaspiro[3.6]decan-6-yl)quinazolin-7-yl)-7-fluorobenzo[b]thiophene-3-carbonitrile]
< 5 | < 5 | N#Cc1c(N)sc2c(F)ccc(-c3c(Cl)cc4c(N5CCCCC6(CN(C(=O)C7CC78CCOC8)C6)C5)nc(OC[C@@]56CCCN5C[C@H](F)C6)nc4c3F)c12 (stereo partly drawn) [compound 267, 4-(4-(2-(5-oxaspiro[2.4]heptane-1-carbonyl)-2,6-diazaspiro[3.6]decan-6-yl)-6-chloro-8-fluoro-2-(((2R,7aS)-2-fluorotetrahydro-1H-pyrrolizin-7a(5H)-yl)methoxy)quinazolin-7-yl)-2-amino-7-fluorobenzo[b] thiophene-3-carbonitrile]
